From the supplement of paper PMC10307832

How the values were obtained:
Experiment in all cases: relative viability (nuclei count vs DMSO), 5 days (fraction); higher = more cells survive
AT-7519 + Lapatinib = compound: O=C(NC1CCNCC1)c1n[nH]cc1NC(=O)c1c(Cl)cccc1Cl [AT-7519] + CS(=O)(=O)CCNCc1ccc(-c2ccc3ncnc(Nc4ccc(OCc5cccc(F)c5)c(Cl)c4)c3c2)o1 [Lapatinib] (partner 2 µM)
Summary of the method: (§1)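 Medians of duplicate plates are given as relative viability. That measure is the nuclei count in treated wells divided by the count in vehicle wells. Counts were taken on 4× images of lung cancer cell lines in 1536-well plates, 5 days after pin-tool dosing the day after seeding with one drug alone or a fixed anchor-drug dose plus five library-drug doses (not always all listed) in √10 steps.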

[1] = compound: C1=CC2=C(C=C(C(=C2N=C1)O)N=NC3=CC4=C(C=C3)C=C(C=C4)S(=O)(=O)O)S(=O)(=O)O + CS(=O)(=O)N1CCN(Cc2cc3nc(-c4cccc5[nH]ncc45)nc(N4CCOCC4)c3s2)CC1 [Pictilisib] (partner 1 µM)
Summary of the method: as §1

[2] = compound: C1=CC2=C(C=C(C(=C2N=C1)O)N=NC3=CC4=C(C=C3)C=C(C=C4)S(=O)(=O)O)S(=O)(=O)O + CS(=O)(=O)CCNCc1ccc(-c2ccc3ncnc(Nc4ccc(OCc5cccc(F)c5)c(Cl)c4)c3c2)o1 [Lapatinib] (partner 2 µM)
Summary of the method: as §1

AT-7519 + Alpelisib = compound: O=C(NC1CCNCC1)c1n[nH]cc1NC(=O)c1c(Cl)cccc1Cl [AT-7519] + Cc1nc(NC(=O)N2CCC[C@H]2C(N)=O)sc1-c1ccnc(C(C)(C)C(F)(F)F)c1 [Alpelisib] (partner 2 µM)
Summary of the method: as §1

Cell Line	relative viability (AT-7519 + Lapatinib; first compound 0.01 µM)	relative viability (AT-7519 + Lapatinib; first compound 0.03162 µM)	relative viability (AT-7519 + Lapatinib; first compound 0.3162 µM)	relative viability (AT-7519 + Lapatinib; first compound 1 µM)	relative viability ([1]; first compound 0.08 µM)	relative viability ([1]; first compound 0.253 µM)	relative viability ([1]; first compound 0.8 µM)	relative viability ([1]; first compound 2.53 µM)	relative viability ([1]; first compound 8 µM)	relative viability ([2]; first compound 0.08 µM)	relative viability ([2]; first compound 0.253 µM)	relative viability ([2]; first compound 0.8 µM)	relative viability ([2]; first compound 2.53 µM)	relative viability ([2]; first compound 8 µM)	relative viability (AT-7519 + Alpelisib; first compound 0.01 µM)	relative viability (AT-7519 + Alpelisib; first compound 0.03162 µM)	relative viability (AT-7519 + Alpelisib; first compound 0.3162 µM)	relative viability (AT-7519 + Alpelisib; first compound 1 µM)
HOP-62	1.03	0.963	1.06	1.05	0.842	0.707	0.651	0.723	0.691	1.32	0.925	0.972	1.05	0.993	1.19	0.965	0.936	0.668
CAL-12T	–	0.538	0.386	0.186	0.351	0.409	0.366	0.36	0.323	0.593	0.58	0.629	0.63	0.663	1.27	1.02	0.534	0.13
NCI-H520	0.922	0.638	0.587	0.283	0.298	0.282	0.332	0.26	0.269	1.1	0.791	0.833	0.798	0.848	0.81	0.847	0.884	0.478
NCI-H1755	1.02	1.03	0.948	1.11	0.407	0.44	0.446	0.47	0.246	1.06	1.04	1.01	1.05	1.05	0.856	0.95	1.03	0.871
NCI-H2023	0.911	0.755	0.504	0.177	0.218	0.261	0.257	0.251	0.298	0.825	0.773	0.899	0.95	0.818	0.648	0.711	0.498	0.3
NCI-H2009	1.09	0.825	0.66	0.277	0.789	0.82	0.757	0.747	0.761	0.898	0.889	0.871	0.884	0.836	1.14	1.12	1.15	0.668
